# Patent US20240254162A1, “CYCLOTHEONELLAZOLEA, AND SYNTHETIC METHOD THEREFOR, AND APPLICATION METHOD THEREOF” (The Second People's Hospital of Shenzhen(Shenzhen Institute …, priority 2022, published 2024)
# Numbered stars: 1 amine (or outer) side, 2 acyl side, 3 side chain; on linkers, the order of the positions; unused ones are H or OH. Bridge positions count the residues as written; N and C are the ends. Square brackets hold non-standard residues; d marks the D form. Peptide text beside a SMILES is read from it. * marks the point of attachment. X2 = O=C(/C=C/c1csc([C@H](Cc2ccc(O)cc2)N[*:1])n1)[*:2]; X1 = CC[C@H](C)[C@H](N[*:1])C(=O)C(=O)[*:2]; Benzoyl(4-OH) = O=C(c1ccc(O)cc1)*; Cya = N[C@@H](CS(=O)(=O)O)C(=O)O; Nva = CCC[C@H](N)C(=O)O; Dap = NC[C@H](N)C(=O)O
# Experiments:
# Format in all cases: biochemical
# [1] = biological target: T1, transmembrane serine protease 2 (TMPRSS2) (Homo sapiens, UniProt O15393); test: Inhibition effect of CA on TMPRSS2 enzyme activity (BPS Bioscience TMPRSS2 detection kit 78083, fluorescence); conditions: incubated at room temperature for 30 min; Ex/Em=383/455 nm; FIG. 1
# T1 construct: purchased BPS Bioscience 78083
# T1 sequence (O15393 whole entry): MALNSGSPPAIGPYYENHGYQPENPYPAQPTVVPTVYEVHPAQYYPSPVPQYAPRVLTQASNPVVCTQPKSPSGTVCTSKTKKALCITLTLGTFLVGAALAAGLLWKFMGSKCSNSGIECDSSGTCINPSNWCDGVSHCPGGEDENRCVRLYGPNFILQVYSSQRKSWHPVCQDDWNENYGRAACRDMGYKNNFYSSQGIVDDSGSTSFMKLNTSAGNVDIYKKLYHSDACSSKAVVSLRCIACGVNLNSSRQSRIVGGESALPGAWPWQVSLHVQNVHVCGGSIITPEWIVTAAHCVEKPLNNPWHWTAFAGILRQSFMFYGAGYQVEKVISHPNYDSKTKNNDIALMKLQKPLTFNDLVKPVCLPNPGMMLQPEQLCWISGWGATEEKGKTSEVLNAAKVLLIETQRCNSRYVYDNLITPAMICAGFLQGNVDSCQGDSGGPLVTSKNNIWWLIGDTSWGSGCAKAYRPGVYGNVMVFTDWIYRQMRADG
# Protocol: • 1. Experimental materials include a TMPRSS2 detection kit (78083) of a BPS Bioscience company and CA. • 2. Experimental methods are as follows. In a black 96-well plate, a blank well group, a negative control well group and a sample well group are set, and a detection system is 50 microliters (μL). The blank well group is added with 40 μL of buffer, the negative control well group is added with 30 μL of TMPRSS2 protease and 10 μL of buffer, the sample well group is added with 30 μL of TMPRSS2 protease and 10 μL of CA solution (respectively with concentrations of 0.1 micromole per liter abbreviated as μM, 1 μM, 10 μM, 30 μM, 100 μM, 150 μM, and 200 μM), and the three groups are incubated at the room temperature for 30 min. Each well is added with 10 μL of substrate, after mixing evenly, fluorescence value of each well is immediately detected at excitation/emission (Ex/Em)=383/455 nanometers (nm), every 30 seconds, and a dynamic process within a range of 0-40 min is observed. Two different time points (T1 and T2) are selected within a linear range of the dynamic process to obtain fluorescence values (RFUT1 and RFUT2) corresponding to the time points, a slope of the fluorescence values is calculated, and the slope can be regarded as an enzyme activity of each well. […] A half inhibitory concentration (IC50) is calculated through an Origin 2021 software. • 3.
# [2] = biological target: T2, mainprotease (Mpro) of SARS-COV-2 virus (Severe acute respiratory syndrome coronavirus 2, UniProt P0DTD1); test: Inhibition effect of CA on Mpro enzyme activity (BPS Bioscience Mpro detection kit 78042-2, fluorescence); conditions: incubated at room temperature for 30 min; Ex/Em=360/460 nm; FIG. 2
# T2 construct: Mainprotease (Mpro) of SARS-COV-2 Virus; purchased BPS Bioscience 78042-2
# [3] = biological target: T3, neutrophil elastase (NE) (Homo sapiens, UniProt P08246); test: Inhibition effect of CA on NE protease enzyme activity (Abcam NE protease detection kit ab118971, fluorescence); conditions: incubated at 37° C. for 5 min; Ex/Em=400/505 nm; FIG. 3
# T3 construct: purchased Abcam ab118971
# T3 sequence (P08246 30-267): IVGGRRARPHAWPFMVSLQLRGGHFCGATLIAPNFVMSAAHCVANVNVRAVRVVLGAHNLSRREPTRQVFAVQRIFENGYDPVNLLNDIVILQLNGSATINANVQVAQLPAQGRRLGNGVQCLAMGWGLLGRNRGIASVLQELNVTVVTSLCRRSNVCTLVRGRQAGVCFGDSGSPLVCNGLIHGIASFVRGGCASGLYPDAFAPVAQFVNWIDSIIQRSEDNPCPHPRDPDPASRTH
# Protocol: • 1. Experimental materials include a NE protease detection kit (ab118971) of an Abcam company and CA. • 2. Experimental methods are as follows. In a black 96-well plate, a blank well group, a negative control well group and a sample well group are set, and a detection system is 100 μL. The blank well group is added with 75 μL of buffer, the negative control well group is added with 50 μL of NE protease and 25 μL of buffer, the sample well group is added with 50 μL of NE protease and 25 μL of CA solution (respectively with concentrations of 0.00001 μM, 0.0001 μM, 0.001 μM, 0.003 μM, 0.01 μM and 0.1 μM), and the three groups are incubated at a temperature of 37° C. for 5 min. Each well is added with 25 μL of substrate, after mixing evenly, fluorescence value of each well is immediately detected at Ex/Em=400/505 nm, every 20 seconds, and a dynamic process within a range of 0-40 min is observed. Two different time points (T1 and T2) are selected within a linear range of the dynamic process to obtain fluorescence values (RFUT1 and RFUT2) corresponding to the time points, a slope of the fluorescence values is calculated, and the slope can be regarded as an enzyme activity of each well. A formula of the slope is slope=(RFUT2−RFUT1)/(T2−T1). […] A half inhibitory concentration (IC50) is calculated through the Origin 2021 software. • 3.
structure (smiles),measurement,setting,value
"CCC[C@@H]1NC(=O)[C@@H](NC(=O)[C@H](C)NC(=O)CNC(=O)c2ccc(O)cc2)CNC(=O)[C@H](CS(=O)(=O)O)NC(=O)/C=C/c2csc(n2)[C@H](Cc2ccc(O)cc2)NC(=O)C(=O)[C@H]([C@@H](C)CC)NC1=O [CA, CyclotheonellazoleA] ({Benzoyl(4-OH)}-GA[Dap][Nva][X1][X2][Cya]; lactam 3-C)",IC50,[1],19.2 µM
same,IC50,[2],159 µM
same,IC50,[3],0.001 µM
